Test results taken from patent US4894458A, “Quinolonecarboxylic acid derivatives and their preparation” (Kyorin Pharmaceutical Co., Ltd., priority 1986, dated 1990).
Values after ≈ are worked out from the molar mass of the structure shown. Like-named read-outs stand apart in the source and are kept apart here.

Key:
[1] = system: gram-negative and gram-positive bacteria; details: cited from earlier work
[2] = system: Bacillus subtilis PCI 219; test: In vitro antibacterial activity (aerobic bacteria), MIC; type: cell-based; details: PCI219
[3] = system: Acinetobacter anitratus IID 876; test: as above; type: cell-based; details: 10^6 cells/ml
Procedure: (§1) Minimal inhibitory concentrations (MICs) were determined in accordance with the method recommended by Japan Society of Chemotherapy.

K. pneumoniae 1-220S = test: as above; type: cell-based; details: Klebsiella pneumoniae, 1220S, Gram -, 10^6 cells/ml
Procedure: as §1

[4] = system: Morganella morganii IID 602; test: as above; type: cell-based; details: 10^6 cells/ml
Procedure: as §1

P. mirabilis IID 994 = test: as above; type: cell-based; details: Proteus mirabilis, IID994, Gram -, 10^6 cells/ml
Procedure: as §1

[5] = system: Pseudomonas aeruginosa V-1; test: as above; type: cell-based; details: Gram -, 10^6 cells/ml
Procedure: as §1

[6] = system: S. aureus IID 670 (Terajima); test: as above; type: cell-based; details: Staphylococcus aureus, IID670, Gram +, 10^6 cells/ml
Procedure: as §1

S. epidermidis IID 866 = test: as above; type: cell-based; details: Staphylococcus epidermidis, IID866, Gram +, 10^6 cells/ml
Procedure: as §1

[7] = system: Serratia marcescens IID 618; test: as above; type: cell-based; details: IID618, Gram -, 10^6 cells/ml
Procedure: as §1

[8] = system: Staphylococcus aureus 209 P; test: as above; type: cell-based; details: Gram +, 10^6 cells/ml
Procedure: as §1

[9] = system: Escherichia coli NIHJ JC-2; test: as above; type: cell-based; details: NIHJJC2, aerobic, Gram -, 10^6 cells/ml
[10] = system: Citrobacter freundii IID 976; test: as above; type: cell-based; details: aerobic; Gram -; 10^6 cells/ml
P. aeruginosa IFO 12689 = test: as above; type: cell-based; details: Pseudomonas aeruginosa, IFO12689
[11] = system: Yersinia enterocolitica IID 981; test: microbe, parasite or virus in culture; type: cell-based; details: IID981
[12] = system: Alcaligenes faecalis 0114002; test: In vitro antibacterial activity (aerobic bacteria), MIC; type: cell-based; details: Alcaligenes faecalis, 0114002, aerobic; Gram -; 10^6 cells/ml
[13] = system: Bacteroides fragilis GM 7000; test: In vitro antibacterial activity (anaerobic bacteria), MIC; type: cell-based; details: GM7000
B. fragilis 0558 = test: as above; type: cell-based; details: Bacteroides fragilis
B. fragilis 25285 = test: as above; type: cell-based; details: Bacteroides fragilis
[14] = system: B. thetaiotaomicron (0661); test: as above; type: cell-based; details: anaerobic; Gram -; 10^6 cells/ml
[15] = system: Peptococcus magnus KY 017; test: as above; type: cell-based; details: Gram +, 10^6 cells/ml
Procedure: as §1

C. ramosum = test: as above; type: cell-based; details: anaerobic; Gram +; 10^6 cells/ml
[16] = system: Veillonella parvula KYA 10790; test: as above; type: cell-based; details: KYA10790

In the case of `CCn1cc(C(=O)O)c(=O)c2cc(F)c(N3CCNCC3)cc21` [norfloxacin], the antibacterial activity ([1]; gram-negative bacteria including Pseudomonas aeruginosa and gram-positive bacteria) is given as “high antibacterial activity”.
For `O=C(O)c1cn(C2CC2)c2cc(N3CCNCC3)c(F)cc2c1=O` [CPFX, ciprofloxacin, reference compound], the MIC [2] was 0.05 mg/L (≈ 0.151 µM), the MIC ([3]; Acinetobacter calcoaceticus, IID876, Gram -, read-out: MIC) was 0.1 mg/L (≈ 0.302 µM) and the MIC ([3]; Gram -) was 0.20 mg/L (≈ 0.604 µM). For the same compound, the MIC (K. pneumoniae 1-220S) was 0.05 mg/L (≈ 0.151 µM), the MIC ([4]; Gram -) was 0.025 mg/L (≈ 0.0754 µM) and the MIC ([4]; Morganella morganii, IID602, Gram -, read-out: MIC) was 0.05 mg/L (≈ 0.151 µM). For the same compound, the MIC (P. mirabilis IID 994) was 0.025 mg/L (≈ 0.0754 µM), the MIC ([5]; Pseudomonas aeruginosa, V1, aerobic, read-out: MIC) was 0.05 mg/L (≈ 0.151 µM) and the MIC ([5]; aerobic) was 0.10 mg/L (≈ 0.302 µM). For the same compound, the MIC [6] was 0.2 mg/L (≈ 0.604 µM), the MIC (S. epidermidis IID 866) was 0.2 mg/L (≈ 0.604 µM) and the MIC [7] was 0.05 mg/L (≈ 0.151 µM). The MIC [8] was 0.2 mg/L (≈ 0.604 µM), the MIC [9] was at most 0.0063 mg/L and the MIC [10] was 0.0063 mg/L (≈ 0.019 µM). It also gave an MIC (P. aeruginosa IFO 12689) of 0.2 mg/L (≈ 0.604 µM), an MIC [11] of 0.05 mg/L (≈ 0.151 µM) and an MIC [12] of 0.2 mg/L (≈ 0.604 µM). The MIC [13] was 6.25 mg/L (≈ 18.9 µM), the MIC (B. fragilis 0558) was 3.13 mg/L (≈ 9.45 µM) and the MIC (B. fragilis 25285) was 3.13 mg/L (≈ 9.45 µM). For the same compound, the MIC [14] was 25 mg/L (≈ 75.4 µM), the MIC [15] was 0.20 mg/L (≈ 0.604 µM) and the MIC (C. ramosum) was 6.25 mg/L (≈ 18.9 µM). The MIC [16] was 0.2 mg/L (≈ 0.604 µM), the “antibacterial activity compared with norfloxacin” value [1] was “stronger antibacterial activity than norfloxacin” and the “antibacterial potency against gram-positive bacteria” value ([1]; compared with gram-negative bacteria) was “considerably inferior to that against gram-negative bacteria”.
